Laboratory results reported in patent US11242407B2, “High-affinity anti-MERTK antibodies and uses thereof” (Rgenix, Inc., priority 2019, dated 2022).

Key:
[1] = system: MERTK-expressing M2 macrophages; assay: Macrophage viability assay, M2; settings: 4 days of treatment in differentiating medium
Method: Macrophage Viability Assay
(§1) Peripheral blood mononuclear cells (PBMCs) were prepared from buffy coats of healthy donors by Histopaque-1077 (Sigma, 10771) density gradient centrifugation at 250×g at room temperature for 30 min. The intermediate layer containing PBMCs was collected and cells were washed with PBS/2 mM EDTA three times. Human monocytes were isolated from PBMCs by magnetic separation using human Classical Monocyte Isolation Kit (Miltenyi, 130-117-337) according to the manufacturer's instructions. Eighty thousand monocytes per well were cultured on 96-well plates in 150 μL PBMC medium (RPMI 1640 medium (Gibco, 11875093) containing 10% human AB serum, 10% FBS, L-glutamine, penicillin, and streptomycin) at 37° C. with 5% CO2. Monocytes were treated with GM-CSF (20 ng/mL; Biolegend, 766102) or M-CSF (50 ng/mL; Biolegend, 574804) for 8 days to differentiate to M1 or M2 macrophages, respectively. […] On day 4, 100 μL of CellTiter-Glo 2.0 Cell Viability Assay reagent (Promega, G9241) was added to each well, incubated for 10 mins and the luminescence signal was detected with a GloMax Discover Microplate Reader (Promega). The mean relative luminometer units (RLU) from duplicate wells were plotted with GraphPad Prism.

[2] = system: MERTK-expressing M1 macrophages; assay: Macrophage viability assay, M1; settings: 4 days of treatment in differentiating medium
Method: Macrophage Viability Assay
as §1

CCCCNc1ncc2c(-c3ccc(S(=O)(=O)N4CCOCC4)cc3)nn(C3CCC(O)CC3)c2n1 (centres unmarked) [UNC1062, reference compound]
viability of M2 macrophages (CellTiter-Glo 2.0) [1]: neither z10 nor z10-MMAE nor z10-SN-38 nor the MERTK inhibitor UNC1062 affect the viability
viability of M1 macrophages (CellTiter-Glo 2.0) [2]: neither z10 nor z10-MMAE nor z10-SN-38 nor the MERTK inhibitor UNC1062 affect the viability
